Results reported in PubChem BioAssay (NCI).
“And” between values parts separate entries of the source, which are not always exact repeats. Equal entries are not always repeated.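 Step 1: Grow cells in 96-well plates. Step 2: Expose to compound for 48 hours at 5 concentrations. Step 3: Interpolate endpoints linearly; if unreached, use highest concentration. GI50 = concentration required for 50% inhibition of growth. TGI: total growth inhibition.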

Key:
Assay in all cases: DTP human tumour cell line panel, 48 h
EKVX NSCLC = tested on: EKVX NSCLC
SK-MEL-2 melanoma = tested on: SK-MEL-2 melanoma
SF-295 CNS = tested on: SF-295 CNS
SK-OV-3 ovarian = tested on: SK-OV-3 ovarian
UACC-257 melanoma = tested on: UACC-257 melanoma
RPMI-8226 leukemia = tested on: RPMI-8226 leukemia
MCF7 breast = tested on: MCF7 breast
786-0 renal = tested on: 786-0 renal
MALME-3M melanoma = tested on: MALME-3M melanoma
MDA-MB-231 breast = tested on: MDA-MB-231 breast
HL-60(TB) leukemia = tested on: HL-60(TB) leukemia
ACHN renal = tested on: ACHN renal
CAKI-1 renal = tested on: CAKI-1 renal
U251 CNS = tested on: U251 CNS
OVCAR-4 ovarian = tested on: OVCAR-4 ovarian
UACC-62 melanoma = tested on: UACC-62 melanoma
HT29 colon = tested on: HT29 colon
M14 melanoma = tested on: M14 melanoma
HCC-2998 colon = tested on: HCC-2998 colon

Structure (SMILES) | TGI (EKVX NSCLC) [µM] | TGI (SK-MEL-2 melanoma) [µM] | TGI (SF-295 CNS) [µM] | TGI (SK-OV-3 ovarian) [µM] | TGI (UACC-257 melanoma) [µM] | TGI (RPMI-8226 leukemia) [µM] | TGI (MCF7 breast) [µM] | TGI (786-0 renal) [µM] | TGI (MALME-3M melanoma) [µM] | TGI (MDA-MB-231 breast) [µM] | TGI (HL-60(TB) leukemia) [µM] | TGI (ACHN renal) [µM] | TGI (CAKI-1 renal) [µM] | TGI (U251 CNS) [µM] | TGI (OVCAR-4 ovarian) [µM] | TGI (UACC-62 melanoma) [µM] | TGI (HT29 colon) [µM] | TGI (M14 melanoma) [µM] | TGI (HCC-2998 colon) [µM] | GI50 (MDA-MB-231 breast)
CCN(CC)CCCNc1ccc([N+](=O)[O-])c2nc3ccc(OC)cc3c(N)c12 | > 10 | > 10 | 3.64 | > 5.48 | > 10 | 4.81 | > 6.17 | 2.9 | > 10 | 3.29 | 4.03 | > 10 | > 10 | > 10 | 4.41 | > 10 | 3.95 | > 6.1 | – | –
O=C1NC(=S)NC(=O)C1=Cc1ccc(-c2ccccc2)cc1 | > 100 | > 100 | > 100 | > 100 | > 100 | > 100 | > 100 | > 100 | > 100 | > 100 | – | > 100 | > 100 | > 100 | > 100 | > 100 | > 100 | > 100 | > 100 | –
CCOC(=O)CCC(NC(=O)C(N)c1ccc([N+](=O)[O-])cc1)C(=O)NC(CCC(=O)OCC)C(=O)OCC (stereo unspecified) | > 100 | > 100 | – | – | > 100 | > 100 | > 100 | > 100 | > 100 | > 100 | > 100 | > 100 | – | > 100 | – | > 100 | > 100 | > 100 | > 100 | –
CC(=O)Oc1c(OC(C)C)c(C)c(O[Si](C(C)C)(C(C)C)C(C)C)c2[nH]c3ccccc3c12 | > 100 | > 100 | > 100 | > 100 | > 100 | > 100 | > 100 | > 100 | – | > 100 | 8.43 | > 100 | > 100 | > 100 | > 100 | > 100 | > 100 | > 100 | – | –
Oc1cnc2c(O)cccc2c1 | 57.2 | > 100 | > 100 | > 100 | > 100 | > 100 | > 100 | > 100 | > 100 | > 100 | > 100 | 92.9 | – | > 100 | – | 62.3 | > 100 | > 100 | > 100 | –
[N-]=[N+]=Nc1ccc2c(c1)Sc1ccccc1N2CCCCN1CCN(Cc2ccc(C(=O)c3ccc(CSCC(N)C(=O)O)cc3)cc2)CC1 (stereo unspecified) | > 100 | 48.1 | 44.5 | > 100 | 69.2 | > 100 | 54.4 | 24.4 | – | 50.9 | 30.8 | > 100 | 67 | 26.4 | > 100 | 24.4 | 30.7 | – | 59.2 | –
COc1cccc(C=C2N=C(c3ccccc3)N(n3c(-c4ccccc4)nc4ccccc4c3=O)C2=O)c1 | > 100 | – | > 100 | > 100 | > 100 | > 100 | > 100 | > 100 | > 100 | > 100 | 59.2 | > 100 | > 100 | – | – | > 100 | > 100 | > 100 | > 100 | –
C=C1C(=O)O[C@H]2C/C(C)=C/CC[C@]3(C)CCC[C@](C)(CC[C@@H]12)O3 | 22.7 | 17.9 | > 50 | > 50 | 21.7 | 20 | 49.4 | 16.4 | – | 46.2 | – | 17.2 | 25.7 | 17.7 | 43.7 | 24.4 | 15.2 | – | 14.5 | –
CSC1=C(C(=O)Nc2ccc(C)cc2)C(N)=NC1=O | > 100 | – | > 100 | > 100 | > 100 | > 100 | > 100 | > 100 | – | > 100 | > 100 | > 100 | > 100 | > 100 | > 100 | > 100 | > 100 | > 100 | > 100 | –
CC(C)CC(NP(=O)(O)OC1OC(C)C(O)C(O)C1O)C(=O)NC(Cc1c[nH]c2ccccc12)C(=O)O (stereo unspecified) | > 100 | – | > 100 | > 100 | > 100 | > 100 | > 100 | > 100 | > 100 | > 100 | – | – | > 100 | > 100 | > 100 | > 100 | > 100 | > 100 | > 100 | –
CCOC(=O)c1sc2c(c1O)c(=O)n(-c1ccccc1)c(=S)n2-c1ccccc1 | – | > 100 | > 100 | – | > 100 | > 100 | > 100 | > 100 | > 100 | > 100 | > 100 | > 100 | – | > 100 | > 100 | > 100 | > 100 | > 100 | > 100 | –
C[C@@H]1CCC2C(C)(C)C(/C=C\C=O)C3(C)OC213 (stereo partly specified) | > 100 | > 100 | > 100 | > 100 | > 100 | 84.5 | > 100 | > 100 | 72.1 | > 100 | – | > 100 | > 100 | > 100 | > 100 | > 100 | 62 | > 100 | 78.4 | –
CCN(CC)c1ccc(C2Nc3ccc4ccccc4c3C3=C2C(=O)CCC3)cc1 (stereo unspecified) | > 100 | > 100 | > 100 | > 100 | > 100 | > 100 | > 100 | 76.8 | > 100 | 50.8 | – | 33.6 | > 100 | 33 | 46.4 | > 100 | > 100 | > 100 | > 100 | –
O=C(Cn1c(=O)oc2ccc(C(=O)c3ccc(F)cc3)cc21)c1ccccc1 | – | > 100 | – | > 100 | > 100 | > 100 | > 100 | > 100 | > 100 | > 100 | > 100 | > 100 | > 100 | > 100 | > 100 | > 100 | > 100 | > 100 | > 100 | –
NC(=O)C(=CNC(=S)Nc1ccc(S(=O)(=O)Nc2ccccn2)cc1)C(N)=O | > 100 | > 100 | > 100 | > 100 | > 100 | > 100 | > 100 | > 100 | – | > 100 | – | > 100 | > 100 | > 100 | > 100 | > 100 | > 100 | > 100 | – | –
OC(Cc1ccc2ccccc2n1)(C(F)(F)Cl)C(F)(F)Cl | > 10 | – | > 10 | > 10 | > 10 | – | > 10 | > 10 | > 10 | > 10 | – | > 10 | > 10 | > 10 | > 10 | > 10 | > 10 | > 10 | > 10 | –
CCCCCCNC(=S)N/N=C(\C)c1ccccn1 | 47.2 | 22.7 | 12.5 | 21.6 | 15.3 | 9.31 | 19 | 12.1 | 16.8 | 14.4 | – | 10 | 40.4 | 14.2 | 34.7 | 6.37 | 19.4 | 6.86 | 20.9 | –
CCCC(C)NC(=O)c1ccc(N(C)Cc2cnc3nc(N)nc(N)c3n2)cc1 (stereo unspecified) | > 100 | 49 | > 100 | > 100 | 57.5 | > 100 | 78 | > 100 | 39.3 | > 100 | > 100 | 92.5 | > 100 | > 100 | – | 25.7 | 58.6 | 31.1 | – | –
COC(=O)n1c(C)c(C=O)c2ccc(OC)cc21 | > 100 | > 100 | 69.6 | > 100 | > 100 | – | 88.2 | > 100 | > 100 | > 100 | > 100 | > 100 | 87.9 | – | > 100 | 57.1 | > 100 | > 100 | 55.8 | –
CCOC(=O)N(C)C(=C(F)F)C(F)(F)F | 89.2 | 44.5 | > 100 | > 100 | > 100 | 49 | > 100 | 72 | 33.5 | 84.2 | 49.7 | – | – | > 100 | 90.8 | – | 78.2 | 46.5 | 37.7 | –
CCc1cc2c(c3c1CCCC3)CC1(Cc3ccc(C(=O)OC)cc3C1)C2 (stereo unspecified) | > 100 | > 100 | > 100 | > 100 | > 100 | > 100 | > 100 | > 100 | > 100 | > 100 | 51.6 | > 100 | – | > 100 | > 100 | > 100 | > 100 | > 100 | > 100 | –
COc1cc(COC(=O)N2CC=CC2C(=O)O)c([N+](=O)[O-])cc1OC (stereo unspecified) | > 100 | – | > 100 | > 100 | > 100 | > 100 | > 100 | > 100 | > 100 | – | > 100 | > 100 | – | > 100 | – | > 100 | > 100 | > 100 | > 100 | –
c1ccc(-c2c3c(nc4c2CC[C@H]4NC2=NCCN2)[C@@H](NC2=NCCN2)CC3)cc1 | > 100 | > 100 | > 100 | > 100 | > 100 | – | > 100 | > 100 | > 100 | > 100 | > 100 | > 100 | > 100 | 23.6 | > 100 | > 100 | > 100 | > 100 | > 100 | –
CC(=O)OCC1OC(n2c(N)c(C#N)c(C)c(C#N)c2=S)C(OC(C)=O)C(OC(C)=O)C1OC(C)=O (stereo unspecified) | > 100 | > 100 | > 100 | > 100 | > 100 | > 100 | > 100 | > 100 | > 100 | > 100 | – | > 100 | > 100 | > 100 | > 100 | > 100 | > 100 | > 100 | > 100 | 40 µM and > 100 µM
Nc1ncnc2c1ncn2-c1ccc([N+](=O)[O-])cn1 | – | > 100 | > 100 | > 100 | > 100 | > 100 | > 100 | > 100 | – | > 100 | > 100 | > 100 | > 100 | > 100 | > 100 | > 100 | > 100 | > 100 | > 100 | –
CCOC(=O)[C@@H]1ON2O[C@H](OC3CCCCC3c3ccccc3)C[C@H]3OC(=O)[C@@H]1C32 (stereo partly specified) | > 100 | – | > 100 | > 100 | > 100 | > 100 | > 100 | > 100 | – | > 100 | – | > 100 | > 100 | > 100 | – | > 100 | > 100 | > 100 | > 100 | –
O=C(c1ccccc1)c1ccc2c(c1)nc1n2C(c2c(F)cccc2F)SC1 (stereo unspecified) | 84.5 | 62.4 | > 100 | > 100 | > 100 | > 100 | > 100 | > 100 | > 100 | > 100 | – | > 100 | > 100 | > 100 | > 100 | 72.2 | 55.9 | 61 | > 100 | –
